# Reference: patent US20070249655A1, “4-Substituted-1,5-Dihydro-Pyrido[3,2-B]Indol-2-Ones” (priority 2004, published 2007)
# System: wild type laboratory HIV strain (HIV-1 strain LAI)
# Test: Antiviral cellular assay (MT4 cells, MTT), wild type
# Format: cell-based
# Details: Human immunodeficiency virus 1, MT4; read-out: EC50 value, wild-type HIV-LAI strain
# Experimental: The compounds of the present invention were examined for anti-viral activity in a cellular assay. […] The cellular assay was performed according to the following procedure.
# HIV- or mock-infected MT4 cells were incubated for five days in the presence of various concentrations of the inhibitor. At the end of the incubation period, the replicating virus in the control cultures has killed all HIV-infected cells in the absence of any inhibitor. Cell viability was determined by measuring the concentration of MTT, a yellow, water soluble tetrazolium dye that is converted to a purple, water insoluble formazan in the mitochondrial of living cells only. Upon solubilization of the resulting formazan crystals with isopropanol, the absorbance of the solution was monitored at 540 nm. The values correlate directly to the number of living cells remaining in the culture at the completion of the five day incubation. The inhibitory activity of the compound was monitored on the virus-infected cells and was expressed as EC50 and EC90. These values represent the amount of the compound required to protect 50% and 90%, respectively, of the cells from the cytopathogenic effect of the virus. The toxicity of the compound was measured on the mock-infected cells and was expressed as CC50, which represents the concentration of compound required to inhibit the growth of the cells by 50%. The selectivity index (SI) (ratio CC50/EC50) is an indication of the selectivity of the anti-HIV activity of the inhibitor. Wherever results are reported as e.g. pEC50 or pCC50 values, the result is expressed as the negative logarithm of the result expressed as EC50 or CC50 respectively.
row,Structure (SMILES),EC50
1,Cn1c2ccccc2c2c1cc(C#N)c(=O)n2-c1ccc(N)cc1 [Compound 89],> 32 µM
2,Cn1c2ccccc2c2c1cc(C#N)c(=O)n2-c1ccc(-c2ccco2)cc1 [Compound 48],1 to 32 µM
3,Cn1c2ccccc2c2c1cc(C(=N)NO)c(=O)n2-c1ccc([N+](=O)[O-])cc1 [Compound 70],1 to 32 µM
4,Cn1c2ccccc2c2c1cc(C#N)c(=O)n2-c1cccc([N+](=O)[O-])c1 [Compound 43],< 1 µM
5,Cn1c2ccccc2c2c1cc(C#N)c(=O)n2-c1ccc(C#N)cc1 [Compound 46],1 to 32 µM
6,Cn1c2ccccc2c2c1cc(Cl)c(=O)n2-c1ccc(C(=O)O)cc1 [Compound 87],1 to 32 µM
7,Cn1c2ccccc2c2c1cc(C#N)c(=O)n2-c1ccc(F)cc1 [Compound 44],> 32 µM
8,N#Cc1ccc(-n2c(=O)ccc3[nH]c4ccccc4c32)cc1 [Compound 93],1 to 32 µM
9,N#Cc1ccc(-n2c(=O)c(C#N)cc3[nH]c4ccccc4c32)cc1 [Compound 45],> 32 µM
10,CCCCn1c2ccccc2c2c1cc(C#N)c(=O)n2-c1ccc([N+](=O)[O-])cc1 [Compound 8],< 1 µM
11,Cn1c2ccccc2c2c1ccc(=O)n2-c1ccc(C(=O)O)cc1 [Compound 99],1 to 32 µM
12,Cn1c2ccccc2c2c1ccc(=O)n2-c1ccc(/C(N)=N/O)cc1 [Compound 97],1 to 32 µM
13,O=C(O)c1ccc(-n2c(=O)ccc3[nH]c4ccccc4c32)cc1 [Compound 94],1 to 32 µM
14,Cn1c2ccccc2c2c1cc(C#N)c(=O)n2-c1ccc(Br)cc1 [Compound 39],1 to 32 µM
15,Cn1c2ccccc2c2c1ccc(=O)n2-c1ccc(C#N)cc1 [Compound 96],1 to 32 µM
